Data taken from US20040082635A1, “Fused cyclic compounds and medicinal use thereof” (priority 2001, published 2004).

Biological target: T1, HCV polymerase (Hepatitis C virus genotype 1b, UniProt P26663)
T1 construct: a region encoding NS5B (591 amino acids; J Virol 1991 Mar, 65(3), 1105-13) was amplified by PCR; 6 His (N); made in house; host or cells: Escherichia coli
Assay: biochemical
Settings: read-out: HCV polymerase inhibitory activity IC50

T1 sequence (P26663 2420-3010): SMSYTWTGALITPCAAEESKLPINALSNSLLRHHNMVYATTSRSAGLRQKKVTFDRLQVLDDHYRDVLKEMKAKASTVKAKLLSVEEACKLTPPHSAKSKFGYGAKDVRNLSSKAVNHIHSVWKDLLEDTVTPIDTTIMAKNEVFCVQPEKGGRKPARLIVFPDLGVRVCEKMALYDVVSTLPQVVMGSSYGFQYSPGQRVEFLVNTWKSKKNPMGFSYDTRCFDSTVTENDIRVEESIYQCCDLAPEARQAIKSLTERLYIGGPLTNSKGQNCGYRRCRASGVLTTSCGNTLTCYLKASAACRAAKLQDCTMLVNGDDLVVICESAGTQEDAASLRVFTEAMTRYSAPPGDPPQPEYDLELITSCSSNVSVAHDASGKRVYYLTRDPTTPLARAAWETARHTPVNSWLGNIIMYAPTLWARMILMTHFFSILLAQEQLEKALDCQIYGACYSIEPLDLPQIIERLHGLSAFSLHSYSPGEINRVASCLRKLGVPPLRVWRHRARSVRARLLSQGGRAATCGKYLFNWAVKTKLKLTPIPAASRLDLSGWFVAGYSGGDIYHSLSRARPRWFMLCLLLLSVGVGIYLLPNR

Q: How did the IC50 turn out when `O=C(O)c1ccc2c(c1)nc(-c1ccc(OC[C@@H]3CCCN3S(=O)(=O)c3ccccc3)cc1)n2C1CCCCC1` [Example 193, 2-{4-[{(2S)-1-benzenesulfonyl-2-pyrrolidinyl}methoxy]phenyl}-1-cyclohexylbenzimidazole-5-carboxylic acid] was run?
A: 130 nM

Q: How did the IC50 turn out when `O=C(O)c1ccc2c(c1)nc(-c1ccc(OC[C@@H]3CCCN3C(=O)c3ccccc3)cc1)n2C1CCCCC1` [Example 194, 2-{4-[{(2S)-1-benzoyl-2-pyrrolidinyl}methoxy]phenyl}-1-cyclohexylbenzimidazole-5-carboxylic acid] was run?
A: 520 nM

Q: How did the IC50 turn out when `NC(=O)c1ccc(-c2ccc(Cl)cc2COc2ccc(-c3nc4cc(C(=O)O)ccc4n3C3CCCCC3)cc2)cc1` [Example 195, 2-{4-[2-(4-carbamoylphenyl)-5-chlorobenzyloxy]phenyl}-1-cyclohexylbenzimidazole-5-carboxylic acid] was run?
A: 23 nM

Q: Which IC50 does the source give for `CN(C)C(=O)COc1cccc(Oc2ccc(-c3nc4cc(C(=O)O)ccc4n3C3CCCCC3)cc2)c1` [Example 196, 1-cyclohexyl-2-{4-[3-(dimethylcarbamoylmethoxy)phenoxy]phenyl}benzimidazole-5-carboxylic acid] here?
A: 200 nM

Q: Which IC50 does the source give for `O=C(O)c1ccc2c(c1)nc(-c1ccc(Oc3cccc(OCC(=O)N4CCCCC4)c3)cc1)n2C1CCCCC1` [Example 197, 1-cyclohexyl-2-{4-[3-(piperidinocarbonylmethoxy)phenoxy]-phenyl}benzimidazole-5-carboxylic acid] here?
A: 110 nM

Q: For `CS(=O)(=O)N1CCC(COc2cccc(Oc3ccc(-c4nc5cc(C(=O)O)ccc5n4C4CCCCC4)cc3)c2)CC1` [Example 198, 1-cyclohexyl-2-{4-[3-{(1-methanesulfonyl-4-piperidyl)methoxy}-phenoxy]phenyl}benzimidazole-5-carboxylic acid], which IC50 is on record?
A: 44 nM

Q: Which IC50 does the source give for `Cc1nc(COc2ccc(-c3nc4cc(C(=O)O)ccc4n3C3CCCCC3)cc2)c(-c2ccc(Cl)cc2)o1` [Example 199, 1-cyclohexyl-2-{4-[{2-methyl-5-(4-chlorophenyl)-4-oxazolyl}-methoxy]phenyl}benzimidazole-5-carboxylic acid] here?
A: 110 nM

Q: For `O=C(O)c1ccc2c(c1)nc(-c1ccc(Oc3cccc(OCc4cccc(Cl)c4)c3)cc1)n2C1CCCCC1` [Example 200, 2-{4-[3-(3-chlorobenzyloxy)phenoxy]phenyl}-1-cyclohexylbenzimidazole-5-carboxylic acid], which IC50 is on record?
A: 100 nM

Q: Which IC50 does the source give for `O=C(O)c1ccc2c(c1)nc(-c1ccc(Oc3cccc(OCc4ccc(Cl)cc4)c3)cc1)n2C1CCCCC1` [Example 201, 2-{4-[3-(4-chlorobenzyloxy)phenoxy]phenyl}-1-cyclohexylbenzimidazole-5-carboxylic acid] here?
A: 140 nM

Q: How did the IC50 turn out when `O=C(O)c1ccc2c(c1)nc(-c1ccc(Oc3cccc(OCc4ccc(F)cc4)c3)cc1)n2C1CCCCC1` [Example 202, 1-cyclohexyl-2-{4-[3-(4-fluorobenzyloxy)phenoxy]phenyl}-benzimidazole-5-carboxylic acid] was run?
A: 95 nM

Q: For `O=C(O)c1ccc2c(c1)nc(-c1ccc(OC[C@@H]3CCCN3c3ccc([N+](=O)[O-])cc3)cc1)n2C1CCCCC1` [Example 203, 1-cyclohexyl-2-{4-[{(2S)-1-(4-nitrophenyl)-2-pyrrolidinyl}-methoxy]phenyl}benzimidazole-5-carboxylic acid], which IC50 is on record?
A: 63 nM

Q: With `CC(=O)Nc1ccc(N2CCC[C@H]2COc2ccc(-c3nc4cc(C(=O)O)ccc4n3C3CCCCC3)cc2)cc1` [Example 205, 2-{4-[{(2S)-1-(4-acetylaminophenyl)-2-pyrrolidinyl}methoxy]-phenyl}-1-cyclohexylbenzimidazole-5-carboxylic acid] as the compound, how does the IC50 read?
A: 77 nM

Q: How did the IC50 turn out when `Cc1nc(COc2ccc(-c3nc4cc(C(=O)O)ccc4n3C3CCCCC3)cc2)c(-c2ccc(Cl)cc2)s1` [Example 206, 2-{4-[{5-(4-chlorophenyl)-2-methyl-4-thiazolyl}methoxy]phenyl}-1-cyclohexylbenzimidazole-5-carboxylic acid] was run?
A: 50 nM

Q: Which IC50 does the source give for `O=C(O)c1ccc2c(c1)nc(-c1ccc(OCc3cccc([N+](=O)[O-])c3-c3ccc(Cl)cc3)cc1)n2C1CCCCC1` [Example 208, 1-cyclohexyl-2-{4-[2-(4-chlorophenyl)-3-nitrobenzyloxy]phenyl}-benzimidazole-5-carboxylic acid] here?
A: 39 nM

Q: How did the IC50 turn out when `O=C(O)c1ccc2c(c1)nc(-c1ccc(Oc3cccc(OC4CCOCC4)c3)cc1)n2C1CCCCC1` [Example 209, 1-cyclohexyl-2-{4-[3-(4-tetrahydropyranyloxy)phenoxy]phenyl}-benzimidazole-5-carboxylic acid] was run?
A: 120 nM

Q: `O=C(O)c1ccc2c(c1)nc(-c1ccc(Oc3cccc(OCc4ccc(C(F)(F)F)cc4)c3)cc1)n2C1CCCCC1` [Example 210, 1-cyclohexyl-2-{4-[3-(4-trifluoromethylbenzyloxy)phenoxy]phenyl}-benzimidazole-5-carboxylic acid] was tested. Which IC50 did it give?
A: 310 nM

Q: For `CN1CCC(COc2cccc(Oc3ccc(-c4nc5cc(C(=O)O)ccc5n4C4CCCCC4)cc3)c2)CC1` [Example 211, 1-cyclohexyl-2-{4-[3-{(1-methyl-4-piperidyl)methoxy}phenoxy]-phenyl}benzimidazole-5-carboxylic acid], which IC50 is on record?
A: 59 nM

Q: `CC(C)(C)c1ccc(COc2cccc(Oc3ccc(-c4nc5cc(C(=O)O)ccc5n4C4CCCCC4)cc3)c2)cc1` [Example 212, 2-{4-[3-(4-tert-butylbenzyloxy)phenoxy]phenyl}-1-cyclohexylbenzimidazole-5-carboxylic acid] was tested. Which IC50 did it give?
A: 230 nM

Q: `O=C(O)c1ccc2c(c1)nc(-c1ccc(Oc3cccc(OCc4ccccc4Cl)c3)cc1)n2C1CCCCC1` [Example 213, 2-{4-[3-(2-chlorobenzyloxy)phenoxy]phenyl}-1-cyclohexylbenzimidazole-5-carboxylic acid] was tested. Which IC50 did it give?
A: 100 nM

Q: How did the IC50 turn out when `O=C(O)c1ccc2c(c1)nc(-c1ccc(Oc3cccc(-c4cccnc4)c3)cc1)n2C1CCCCC1` [Example 214, 1-cyclohexyl-2-{4-[3-(3-pyridyl)phenoxy]phenyl}benzimidazole-5-carboxylic acid] was run?
A: 59 nM

Q: For `O=C(O)c1ccc2c(c1)nc(-c1ccc(Oc3cccc(-c4ccc(Cl)cc4)c3)cc1)n2C1CCCCC1` [Example 215, 2-{4-[3-(4-chlorophenyl)phenoxy]phenyl}-1-cyclohexylbenzimidazole-5-carboxylic acid], which IC50 is on record?
A: 78 nM

Q: `COc1ccc(-c2cccc(Oc3ccc(-c4nc5cc(C(=O)O)ccc5n4C4CCCCC4)cc3)c2)cc1` [Example 216, 1-cyclohexyl-2-{4-[3-(4-methoxyphenyl)phenoxy]phenyl}-benzimidazole-5-carboxylic acid] was tested. Which IC50 did it give?
A: 84 nM

Q: With `Cc1nc(-c2ccc(S(C)(=O)=O)cc2)c(COc2ccc(-c3nc4cc(C(=O)O)ccc4n3C3CCCCC3)cc2)s1` [Example 217, 1-cyclohexyl-2-{4-[{4-(4-methanesulfonylphenyl)-2-methyl-5-thiazolyl}methoxy]phenyl}benzimidazole-5-carboxylic acid] as the compound, how does the IC50 read?
A: 58 nM

Q: For `Cc1nc(-c2ccc(Cl)cc2)c(COc2ccc(-c3nc4cc(C(=O)O)ccc4n3C3CCCCC3)cc2)s1` [Example 218, 2-{4-[{4-(4-chlorophenyl)-2-methyl-5-thiazolyl}methoxy]phenyl}-1-cyclohexylbenzimidazole-5-carboxylic acid], which IC50 is on record?
A: 33 nM

Q: With `O=C(O)c1ccc2c(c1)nc(-c1ccc(OC3CCCN(Cc4ccc(Cl)cc4)C3)cc1)n2C1CCCCC1` (stereo not shown) [Example 219, 2-{4-[1-(4-chlorobenzyl)-3-piperidyloxy]phenyl}-1-cyclohexylbenzimidazole-5-carboxylic acid] as the compound, how does the IC50 read?
A: 130 nM
